Two substances from patent publication US20170327559A1, “VIRAL INACTIVATION USING IMPROVED SOLVENT-DETERGENT METHOD” (Baxalta Incorporated, priority 2010, published 2017) can be followed below.

Series [1] is described as follows: Temperature effects on solvent/detergent components before and after 0.2 μm filtration (HPLC). The class given is physicochemical. As for the experimental part: In order to evaluate the influence of a lower temperature on the mixing time of solvent/detergent components, 50 mL solvent/detergent solutions were prepared by adding 0.3% (v/v) TNBP, 1.0% (v/v) polyoxyethylene octyl phenyl ether (TRITON® X-100) and 0.3% (v/v) polysorbate 80 sorbitan monooleate (TWEEN® 80) and stirring at 4±2° C. for 10, 20, or 30 minutes. As the solvent/detergent solution already contained 0.1% polysorbate 80 sorbitan monooleate (TWEEN® 80), the final concentration for this compound was of 0.4%. The concentration of TNBP and polyoxyethylene octyl phenyl ether (TRITON® X-100) were determined simultaneously by using C18 RP-HPLC with a refractive index detector (RID). The concentration of polysorbate 80 sorbitan monooleate (TWEEN® 80) was determined by C1 RP-HPLC using an evaporative light scattering detector (ELSD). For the HPLC analysis of TNBP and polyoxyethylene octyl phenyl ether (TRITON® X-100), an isocratic elution is employed using 68% methanol in water. In the assay of polysorbate 80 sorbitan monooleate (TWEEN® 80), a gradient elution from 60% methanol in water to 100% methanol is used.
To evaluate the impact of the temperature toward a potential retention of solvent/detergent conponents during the filtration step, 50 mL solvent/detergent solutions were prepared by adding 0.3% (v/v) TNBP, 1.0% (v/v) polyoxyethylene octyl phenyl ether (TRITON® X-100) and 0.3% (v/v) polysorbate 80 sorbitan monooleate (TWEEN® 80), stirring at 4±2° C. for 30 minutes and the concentration of each component was measured as described above. The solvent/detergent solutions were then processed under three different temperature conditions: 22.5° C. with a warm up period of about 8 hours; 22.5° C. with a warm up period of about 2 hours; and 4° C. without any warm-up or preheating step. At the end of the incubation period, samples were filtrated through a 0.2 μm filter and TNBP, polyoxyethylene octyl phenyl ether (TRITON® X-100) and polysorbate 80 sorbitan monooleate (TWEEN® 80) concentrations were measured by HPLC.

Values joined by “and” are separate entries in the source; they are usually repeats but may differ in a detail not shown here. Equal values may be shown once. Read-outs that look alike come from different tables or passages of the source.

Regarding “polyoxyethylene octyl phenyl ether [TRITON X-100]”, the S/D component concentration is 1.2% and 1.1%; the “S/D component concentration, Mean” value came to 1.2 ± 0.06%. Moreover, in series [1], the “S/D component concentration after 0.2 μm filtration” value is 1.00% and 0.90% and 1.10%; the “S/D component concentration after 0.2 μm filtration, Mean” value is 1.03% and 0.97% and 1.00%; the “S/D component concentration before 0.2 μm filtration” value is 0.80% and 1.00%; the “S/D component concentration before 0.2 μm filtration, Mean” value was 1.00% and 0.93%.
Consider “polysorbate 80 sorbitan monooleate [Tween 80]”, for which the “S/D component concentration after 0.2 μm filtration, Mean” value was 0.41% in series [1] (4° C./2 H, n = 3); 0.41% in series [1] (22.5° C./2 H, n = 3); 0.39% in series [1] (22.5° C./8 H, n = 3). The “S/D component concentration before 0.2 μm filtration, Mean” value in series [1] (4° C./2 H, n = 3) worked out at 0.40%; in series [1] (22.5° C./2 H, n = 3), 0.41%; in series [1] (22.5° C./8 H, n = 3) it was 0.38%. For the same substance, the “S/D component concentration after 0.2 μm filtration” value was 0.40% and 0.41% in series [1] (4° C./2 H, runs 1-3); 0.38% and 0.44% and 0.41% in series [1] (22.5° C./2 H, runs 1-3); 0.40% and 0.39% and 0.37% in series [1] (22.5° C./8 H, runs 1-3). For the same substance, the “S/D component concentration before 0.2 μm filtration” value is 0.38% and 0.40% and 0.42% in series [1] (4° C./2 H, runs 1-3); 0.41% and 0.42% in series [1] (22.5° C./2 H, runs 1-3); 0.33% and 0.39% and 0.42% in series [1] (22.5° C./8 H, runs 1-3). For the same substance, where the note is “mean of 10, 20, 30 min stirring at 4±2° C.”, the “S/D component concentration, Mean” value worked out at 0.42 ± 0.02%. The S/D component concentration came to 0.42% (stirring at 4±2° C. for 10 min), 0.40% (stirring at 4±2° C. for 20 min) and 0.44% (stirring at 4±2° C. for 30 min).
